Assay results from patent US20250270513A1, “METHOD FOR PRODUCING CULTURED TISSUE, AND PREPARATION FOR EXTERNAL APPLICATION” (National University Corporation Ehime University, priority 2019, published 2025).

Tests used:
[1] = test system: human normal skin keratinocytes on collagen gel containing normal human skin fibroblasts (NHDF); assay: Three-dimensional cultured skin on a sugar-containing dermal cell structure (Test Example 1); format: cell-based
Procedure: Subsequently, about 1 mL of the gel obtained was poured into a transwell-collagen coated insert (catalog number: 3492, manufactured by Costar; pore size: 3.0 μm, surface area: 4.67 cm^2), which is a cell culture insert, and allowed to stand in an incubator for 5 minutes or more. 5 mL of DMEM containing 10 v/v % FCS and 1 v/v % ABAM (Antibiotics-Antimycotic solution, 100×, manufactured by ThermoFisher Scientific Inc.) in which normal human skin fibroblasts (NHDF, manufactured by Cambrex Corporation) were suspended at a cell density of 5×10^5 cells/mL was added to 29 mL of the gel solution I. About 3.5 mL of a gel solution containing the cells was added to the cell culture insert, and the mixture was allowed to stand in a 37° C. incubator for 30 minutes to gel.
(§1) • (2) Next, the collagen gel (layered dermal cell structure) containing NHDF was pre-cultured for 5 days using a DMEM medium containing 50 μg/ml ascorbic acid, 10 v/v % FCS, and 1 v/v % ABAM. Next, human normal skin keratinocytes suspended in MCDB medium were seeded on the collagen gel surface so as to be 1.28×10^5 cells/cm^2, and a medium obtained by mixing equal amounts of MCDB Type-II medium (Growth Medium 2 in JP-B2-3066624) and EGM was added to an external liquid of the cell culture insert and the inside of the insert, followed by culturing at 37° C. for 2 days.
• (3) The medium was replaced with a cornification medium (CM medium), and the cell culture insert was placed such that a porous membrane of the cell culture insert was located at a gas-liquid interface of the cornification medium. In this state, the cells were subjected to gas-liquid interface culture at 37° C. for 7 to 14 days to induce differentiation, thereby obtaining three-dimensional cultured skin. The medium was replaced every two days from the start of the culture.

[2] = test system: three-dimensional cultured skin (dermal tissue layer fibroblasts); assay: Staining test of tissue sections of three-dimensional cultured skin (Test Example 1); format: cell-based, human
Description: • (4) The obtained tissue sections of each three-dimensional cultured skin were stained with HE, EVG, HABP, K10, K5, Alcian blue, SMA and Ki67 by a conventional method. For Ki67 staining, a Ki67 antibody (manufactured by Novocastra Laboratories Ltd) and a secondary antibody (manufactured by Vector Laboratories) were used.

[3] = test system: human normal skin keratinocytes; assay: Culture of keratinocytes alone without collagen gel containing fibroblasts (Test Example 1); format: cell-based; details: 100 mg/mL trehalose in medium, no fibroblast collagen gel
Procedure: as §1
On the other hand, when 100 mg/mL trehalose was added to the medium of (2) without collagen gel containing fibroblasts and culture was performed with keratinocytes alone, formation of epithelial tissue layer was not observed as in the absence of trehalose.

[4] = test system: keratinocytes on layered dermal cell structure containing fibroblasts; assay: Large scale three-dimensional cultured tissue, confluent keratinocyte sheet, gas-liquid interface culture (Test Example 2); format: cell-based, human; details: 100 mg/mL trehalose in dermal cell structure; confluent keratinocyte sheet of about 1 cm; 75 mm insert; 5 days
Procedure: • (1) A layered dermal cell structure containing trehalose at a final concentration of 0 or 100 mg/mL was prepared according to the method (1) of Test Example above except that 10 mL of the gel solution I was added to a cell culture insert with a diameter of 75 mm, and 32 mL of the gel solution containing fibroblasts at the same cell density as in (1) was layered. • (2) A ring with a diameter of 1 cm was placed on the obtained collagen gel, and keratinocytes were seeded inside the ring and cultured in MCDB Type-II-EGM (1:1) medium for 2 days. As a result, a sheet of keratinocytes (epithelial cell layer) with a diameter of about 1 cm is formed on the collagen gel. • (3) When the keratinocytes became confluent, the ring was removed and the medium was replaced with CM medium, and gas-liquid interface culture was performed for 5 days in the same manner as in the method (3) of Test Example 1.

[5] = test system: ERK1/2 (Thr202/Tyr204 phosphorylated); assay: Western blotting of phosphorylated ERK1/2 in fibroblasts (Test Example 3-1); format: cell-based, human; details: 0, 10, 100 mg/mL trehalose in medium, 24 hours
Procedure: The cells were further DNA-stained with PI and subjected to FCM, and the proportion of each cell cycle was examined.
(3) Furthermore, proteins were extracted from the fibroblasts obtained in (1) using RIPA buffer (1% protein inhibitor (manufactured by SIGMA)+Phosphatase Inhibitor cocktail (manufactured by SIGMA)). Then, 10 μg of protein per sample was separated by SDS-PAGE by a conventional method, transferred to a PVDF membrane, and then subjected to Western blotting. Phosphorylated ERK1/2 and phosphorylated AKT were detected by ECL Prime Western Blotting Detection Reagent (manufactured by GE Healthcare), using Phospho-p44/p42 MAPK (Erk1/2) (Thr202/Tyr204) (D13.14.4E) XP Rabbit mAb (#4300, Cell Signaling) and Phospho-Akt (Ser473) antibody (#9271, manufactured by Cell Signaling Technology) as a primary antibody, and an anti-rabbit IgG antibody and an anti-mouse IgG antibody manufactured by PROMEGA were used as secondary antibodies, and visualized by Image Quant LAS4010 (manufactured by GE Healthcare).

[6] = test system: EREG, ARG2, CCL2, IL1RN, PGF, SPP1, VEGFA, AREG and DPT mRNA; assay: qPCR of genes in monolayer fibroblasts, 24 hours (Test Example 3-3); format: cell-based, human; details: 100 mg/mL trehalose (Treha 100)
Procedure: In the same manner as in Test Example 3-2, NHDF was cultured in 1% FCS and 1% ABAM-containing DMEM medium containing 0, 30, or 100 mg/mL trehalose or hyaluronic acid oligosaccharide 4mer (HA4) (product code 11006, manufactured by Cosmo Bio Co., Ltd.) for 24 hours, and RNA was recovered from the cells. Also, as a control, RNA was recovered from fibroblasts before treatment (0 h in FIG. 9). The obtained sample was subjected to the same operation as in Test Example 3-2, and qPCR for genes EREG, ARG2, CCL2, IL1RN, PGF, SPP1, VEGFA, AREG and DPT was performed. GAPDH was used as a reference gene.

[7] = culture to which trehalose was added

OC[C@H]1O[C@H](O[C@H]2O[C@H](CO)[C@@H](O)[C@H](O)[C@H]2O)[C@H](O)[C@@H](O)[C@@H]1O [trehalose, α, α-trehalose]
area of the epithelial tissue layer formed ([1]; 10 mg/mL trehalose added to collagen gel containing fibroblasts, compared to no trehalose): slightly enlarged | area of the epithelial tissue layer formed ([1]; 100 mg/mL trehalose added to collagen gel containing fibroblasts): extended to the outer edge of the insert and further expanded to protrude to the outside of the insert | contraction of the collagen gel [1, 7]: not observed | wrinkles and rumples of the sheet-like epithelial tissue layer [1, 7]: without wrinkles and rumples | Ki67 positive cells in the dermal tissue layer ([2]; 0, 10, 100 mg/mL trehalose): increased as the concentration of trehalose increased | difference in staining pattern depending on the concentration of trehalose ([2]; HE, EVG, HABP, K10, K5, Alcian blue, SMA stains (all except Ki67), 0, 10, 100 mg/mL): no difference | formation of epithelial tissue layer [3]: not observed | expansion of the epithelial tissue layer during gas-liquid interface culture [4]: expanded to the outer edge of the culture insert | phosphorylation of ERK1/2 [5]: promoted as the concentration of trehalose in the medium increases | mRNA expression levels of genes EREG, ARG2, CCL2, IL1RN, PGF, SPP1, VEGFA, AREG and DPT compared to vehicle [6]: remarkably increased
